In PubChem BioAssay AID2060495 (Molecular Pharmacology Branch, DTP, NCI, 2025):

Tested on: 521955-158-R2-J5-PDC complex spheroid viability
Assay: Anticancer human tumor 521955-158-R2-J5-PDC patient-derived pancreatic carcinoma cell line growth inhibition [GQUAD]
Details: for IC50: curve of first compound; for viability, T/C: stronger effect = lower value
In short: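 Tumor cells were grown as complex spheroids with HUVEC endothelial cells and mesenchymal stem cells as stroma. G-quadruplex stabilizers were combined with targeted agents over half-log dilutions from near the clinical Cmax, or from 10 microM.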

[1] = second compound 0.0316 µM, first compound 0.0316 µM
[2] = second compound 0.0316 µM, first compound 0.1 µM
[3] = second compound 0.0316 µM, first compound 0.316 µM
[4] = second compound 0.0316 µM, first compound 1 µM
[5] = second compound 0.0316 µM, first compound 3.16 µM
[6] = second compound 0.0316 µM, first compound 10 µM
[7] = second compound 0.1 µM, first compound 0.0316 µM
[8] = second compound 0.1 µM, first compound 0.1 µM
[9] = second compound 0.1 µM, first compound 0.316 µM
[10] = second compound 0.1 µM, first compound 1 µM
[11] = second compound 0.1 µM, first compound 3.16 µM
[12] = second compound 0.1 µM, first compound 10 µM
[13] = second compound 0.316 µM, first compound 0.0316 µM
[14] = second compound 0.316 µM, first compound 0.1 µM
[15] = second compound 0.316 µM, first compound 0.316 µM
[16] = second compound 0.316 µM, first compound 1 µM
[17] = second compound 0.316 µM, first compound 3.16 µM
[18] = second compound 0.316 µM, first compound 10 µM
[19] = second compound 1 µM, first compound 0.0316 µM
[20] = second compound 1 µM, first compound 0.1 µM
[21] = second compound 1 µM, first compound 0.316 µM
[22] = second compound 1 µM, first compound 1 µM
[23] = second compound 1 µM, first compound 3.16 µM
[24] = second compound 1 µM, first compound 10 µM
[25] = second compound 3.16 µM, first compound 0.0316 µM
[26] = second compound 3.16 µM, first compound 0.1 µM
[27] = second compound 3.16 µM, first compound 0.316 µM
[28] = second compound 3.16 µM, first compound 1 µM
[29] = second compound 3.16 µM, first compound 3.16 µM
[30] = second compound 3.16 µM, first compound 10 µM
[31] = second compound 10 µM, first compound 0.0316 µM
[32] = second compound 10 µM, first compound 0.1 µM
[33] = second compound 10 µM, first compound 0.316 µM
[34] = second compound 10 µM, first compound 1 µM
[35] = second compound 10 µM, first compound 3.16 µM
[36] = second compound 10 µM, first compound 10 µM
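Note: spheroids exposed to agents for one week before reading.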
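Throughout, for viability, T/C: 100% = DMSO vehicle control viability.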

## O=C(NO)c1cnc(N2CCN(S(=O)(=O)c3ccc4ccccc4c3)CC2)nc1 + Cc1cnc(CNC(=O)c2c(=O)c3ccc(N4CCCN(C)CC4)nc3n3c2sc2ccccc23)cn1
Second compound 0.0316 µM
  IC50: 233 nM
Second compound 0.1 µM
  IC50: 167 nM
Second compound 0.316 µM
  IC50: < 31.6 nM
Second compound 1 µM
  IC50: < 31.6 nM
Second compound 3.16 µM
  IC50: < 31.6 nM
Second compound 10 µM
  IC50: < 31.6 nM
[1]
  viability, T/C: 106%
[2]
  viability, T/C: 78.9%
[3]
  viability, T/C: 42.1%
[4]
  viability, T/C: 5.64%
[5]
  viability, T/C: 0.04%
[6]
  viability, T/C: 0.1%
[7]
  viability, T/C: 53.6%
[8]
  viability, T/C: 51.4%
[9]
  viability, T/C: 47%
[10]
  viability, T/C: 6.79%
[11]
  viability, T/C: 0.05%
[12]
  viability, T/C: 0.08%
[13]
  viability, T/C: 27.5%
[14]
  viability, T/C: 36.1%
[15]
  viability, T/C: 29.8%
[16]
  viability, T/C: 1.02%
[17]
  viability, T/C: 0.05%
[18]
  viability, T/C: 0.07%
[19]
  viability, T/C: 20.1%
[20]
  viability, T/C: 22.9%
[21]
  viability, T/C: 12.9%
[22]
  viability, T/C: 0.1%
[23]
  viability, T/C: 0.04%
[24]
  viability, T/C: 0.08%
[25]
  viability, T/C: 11.7%
[26]
  viability, T/C: 17.4%
[27]
  viability, T/C: 4.19%
[28]
  viability, T/C: 0.1%
[29]
  viability, T/C: 0.07%
[30]
  viability, T/C: 0.11%
[31]
  viability, T/C: 11.8%
[32]
  viability, T/C: 8.03%
[33]
  viability, T/C: 2.82%
[34]
  viability, T/C: 0.14%
[35]
  viability, T/C: 0.15%
[36]
  viability, T/C: 0.18%

## O=c1[nH]cc(F)c(=O)[nH]1 + Cc1cnc(CNC(=O)c2c(=O)c3ccc(N4CCCN(C)CC4)nc3n3c2sc2ccccc23)cn1
Second compound 0.0316 µM
  IC50: 1190 nM
Second compound 0.1 µM
  IC50: 1540 nM
Second compound 0.316 µM
  IC50: < 31.6 nM
Second compound 1 µM
  IC50: < 31.6 nM
Second compound 3.16 µM
  IC50: < 31.6 nM
Second compound 10 µM
  IC50: < 31.6 nM
[1]
  viability, T/C: 88.7%
[2]
  viability, T/C: 70.5%
[3]
  viability, T/C: 76.8%
[4]
  viability, T/C: 51.6%
[5]
  viability, T/C: 31.6%
[6]
  viability, T/C: 16.7%
[7]
  viability, T/C: 65.2%
[8]
  viability, T/C: 56.2%
[9]
  viability, T/C: 56.5%
[10]
  viability, T/C: 62.2%
[11]
  viability, T/C: 33.4%
[12]
  viability, T/C: 22.4%
[13]
  viability, T/C: 36.7%
[14]
  viability, T/C: 56.3%
[15]
  viability, T/C: 30.3%
[16]
  viability, T/C: 31%
[17]
  viability, T/C: 20.2%
[18]
  viability, T/C: 17.8%
[19]
  viability, T/C: 23.2%
[20]
  viability, T/C: 22.5%
[21]
  viability, T/C: 20.1%
[22]
  viability, T/C: 16.6%
[23]
  viability, T/C: 17.8%
[24]
  viability, T/C: 14.1%
[25]
  viability, T/C: 18.1%
[26]
  viability, T/C: 19.5%
[27]
  viability, T/C: 17.8%
[28]
  viability, T/C: 19.1%
[29]
  viability, T/C: 17%
[30]
  viability, T/C: 11.7%
[31]
  viability, T/C: 18.7%
[32]
  viability, T/C: 21.7%
[33]
  viability, T/C: 17.3%
[34]
  viability, T/C: 14.2%
[35]
  viability, T/C: 15.5%
[36]
  viability, T/C: 12.1%

## C#Cc1c(F)ccc2cc(O)cc(-c3ncc4c(N5CC6CCC(C5)N6)nc(OCC56CCCN5CC(F)C6)nc4c3F)c12 (stereo not given) + Cc1cnc(CNC(=O)c2c(=O)c3ccc(N4CCCN(C)CC4)nc3n3c2sc2ccccc23)cn1
Second compound 0.0316 µM
  IC50: < 31.6 nM
Second compound 0.1 µM
  IC50: < 31.6 nM
Second compound 0.316 µM
  IC50: < 31.6 nM
Second compound 1 µM
  IC50: < 31.6 nM
Second compound 3.16 µM
  IC50: < 31.6 nM
Second compound 10 µM
  IC50: < 31.6 nM
[1]
  viability, T/C: 35.4%
[2]
  viability, T/C: 31.3%
[3]
  viability, T/C: 26.2%
[4]
  viability, T/C: 19.1%
[5]
  viability, T/C: 17.9%
[6]
  viability, T/C: 13.9%
[7]
  viability, T/C: 24.5%
[8]
  viability, T/C: 26.6%
[9]
  viability, T/C: 21.4%
[10]
  viability, T/C: 18.3%
[11]
  viability, T/C: 17.2%
[12]
  viability, T/C: 13.3%
[13]
  viability, T/C: 19.3%
[14]
  viability, T/C: 20%
[15]
  viability, T/C: 18.3%
[16]
  viability, T/C: 16.1%
[17]
  viability, T/C: 14.1%
[18]
  viability, T/C: 11.5%
[19]
  viability, T/C: 11.3%
[20]
  viability, T/C: 12.6%
[21]
  viability, T/C: 10.9%
[22]
  viability, T/C: 8.41%
[23]
  viability, T/C: 9.79%
[24]
  viability, T/C: 5.56%
[25]
  viability, T/C: 2.92%
[26]
  viability, T/C: 0.7%
[27]
  viability, T/C: 2.89%
[28]
  viability, T/C: 0.31%
[29]
  viability, T/C: 0.11%
[30]
  viability, T/C: 0.08%
[31]
  viability, T/C: 0.08%
[32]
  viability, T/C: 0.7%
[33]
  viability, T/C: 0.19%
[34]
  viability, T/C: 0.15%
[35]
  viability, T/C: 0.18%
[36]
  viability, T/C: 0.16%

## CC1COCCN1c1cc(C2(O)CC3CCC(C2)O3)c2cnn(-c3ccn[nH]3)c2n1 (stereo not given) + CN(C)c1ccc(Nc2c3ccc(NC(=O)CCN4CCCC4)cc3nc3cc(NC(=O)CCN4CCCC4)ccc23)cc1
Second compound 0.0316 µM
  IC50: 44.6 nM
Second compound 0.1 µM
  IC50: 35.1 nM
Second compound 0.316 µM
  IC50: 31.6 nM
Second compound 1 µM
  IC50: 36.1 nM
Second compound 3.16 µM
  IC50: < 31.6 nM
Second compound 10 µM
  IC50: < 31.6 nM
[1]
  viability, T/C: 60.7%
[2]
  viability, T/C: 20.8%
[3]
  viability, T/C: 22.1%
[4]
  viability, T/C: 27.8%
[5]
  viability, T/C: 32.3%
[6]
  viability, T/C: 20.1%
[7]
  viability, T/C: 52.4%
[8]
  viability, T/C: 18.3%
[9]
  viability, T/C: 24%
[10]
  viability, T/C: 26.1%
[11]
  viability, T/C: 32.9%
[12]
  viability, T/C: 19.2%
[13]
  viability, T/C: 50.1%
[14]
  viability, T/C: 20.1%
[15]
  viability, T/C: 23.8%
[16]
  viability, T/C: 31.3%
[17]
  viability, T/C: 31.9%
[18]
  viability, T/C: 19.6%
[19]
  viability, T/C: 53.5%
[20]
  viability, T/C: 17.6%
[21]
  viability, T/C: 17.9%
[22]
  viability, T/C: 26.4%
[23]
  viability, T/C: 37.4%
[24]
  viability, T/C: 14.2%
[25]
  viability, T/C: 47%
[26]
  viability, T/C: 21.5%
[27]
  viability, T/C: 18.9%
[28]
  viability, T/C: 27.6%
[29]
  viability, T/C: 34.1%
[30]
  viability, T/C: 17.2%
[31]
  viability, T/C: 49.3%
[32]
  viability, T/C: 30.1%
[33]
  viability, T/C: 27.9%
[34]
  viability, T/C: 25.3%
[35]
  viability, T/C: 28.4%
[36]
  viability, T/C: 13.3%

## C#Cc1c(F)ccc2cc(O)cc(-c3ncc4c(N5CC6CCC(C5)N6)nc(OCC56CCCN5CC(F)C6)nc4c3F)c12 (stereo not given) + CN(C)c1ccc(Nc2c3ccc(NC(=O)CCN4CCCC4)cc3nc3cc(NC(=O)CCN4CCCC4)ccc23)cc1
Second compound 0.0316 µM
  IC50: 1770 nM
Second compound 0.1 µM
  IC50: 1850 nM
Second compound 0.316 µM
  IC50: 3390 nM
Second compound 1 µM
  IC50: 1400 nM
Second compound 3.16 µM
  IC50: 159 nM
Second compound 10 µM
  IC50: < 31.6 nM
[1]
  viability, T/C: 66.3%
[2]
  viability, T/C: 62.5%
[3]
  viability, T/C: 57.5%
[4]
  viability, T/C: 48.1%
[5]
  viability, T/C: 52.5%
[6]
  viability, T/C: 41.7%
[7]
  viability, T/C: 74.2%
[8]
  viability, T/C: 52.2%
[9]
  viability, T/C: 62%
[10]
  viability, T/C: 60.8%
[11]
  viability, T/C: 40.6%
[12]
  viability, T/C: 33.5%
[13]
  viability, T/C: 61.3%
[14]
  viability, T/C: 57%
[15]
  viability, T/C: 62.8%
[16]
  viability, T/C: 52.5%
[17]
  viability, T/C: 53.1%
[18]
  viability, T/C: 32.6%
[19]
  viability, T/C: 74.8%
[20]
  viability, T/C: 56.4%
[21]
  viability, T/C: 60.1%
[22]
  viability, T/C: 50%
[23]
  viability, T/C: 51.6%
[24]
  viability, T/C: 34.2%
[25]
  viability, T/C: 49.7%
[26]
  viability, T/C: 63.3%
[27]
  viability, T/C: 40.5%
[28]
  viability, T/C: 35.8%
[29]
  viability, T/C: 29%
[30]
  viability, T/C: 16.8%
[31]
  viability, T/C: 31.8%
[32]
  viability, T/C: 23.6%
[33]
  viability, T/C: 15.2%
[34]
  viability, T/C: 10.6%
[35]
  viability, T/C: 6.1%
[36]
  viability, T/C: 1.84%
